Laboratory results published in ChEMBL document CHEMBL1155788, “Bis(sulfonamide) isosters of mycophenolic adenine dinucleotide analogues: inhibition of inosine monophosphate dehydrogenase” (Bioorg Med Chem, 2008).
pIC50, pKi: −log10 of the molar value.

Legend:
[1] = target: Inosine-5'-monophosphate dehydrogenase 2 (Homo sapiens, UniProt P12268); assay: Inhibition of human IMP dehydrogenase 2
[2] = target: Inosine-5'-monophosphate dehydrogenase 1 (Homo sapiens, UniProt P20839); assay: Inhibition of human IMP dehydrogenase 1
Chain of Inosine-5'-monophosphate dehydrogenase 1 (P20839 whole entry): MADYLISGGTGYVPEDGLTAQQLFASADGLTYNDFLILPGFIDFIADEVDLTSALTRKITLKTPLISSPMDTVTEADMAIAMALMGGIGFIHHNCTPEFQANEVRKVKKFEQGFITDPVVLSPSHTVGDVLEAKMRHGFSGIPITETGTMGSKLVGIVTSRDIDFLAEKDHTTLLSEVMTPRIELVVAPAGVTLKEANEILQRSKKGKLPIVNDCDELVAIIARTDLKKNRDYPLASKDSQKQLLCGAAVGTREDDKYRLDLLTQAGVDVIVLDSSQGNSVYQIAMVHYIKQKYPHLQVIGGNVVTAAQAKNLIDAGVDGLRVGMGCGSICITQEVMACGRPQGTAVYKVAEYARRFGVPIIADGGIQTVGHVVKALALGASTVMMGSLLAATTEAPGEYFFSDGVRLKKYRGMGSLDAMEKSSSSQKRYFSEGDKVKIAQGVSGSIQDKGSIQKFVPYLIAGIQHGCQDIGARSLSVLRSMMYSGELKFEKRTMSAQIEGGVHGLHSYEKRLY

[3] = Inhibition of IMP dehydrogenase

pKi [1] | pKi [2] | pKi [3] | pIC50 [2] | Compound
6.36 | 6.09 |  |  | CCc1nc(N)c2ncn([C@@H]3O[C@H](CNS(=O)(=O)CS(=O)(=O)NCCc4c(O)c5c(c(C)c4OC)COC5=O)[C@@H](O)[C@H]3O)c2n1
< 4.00 | < 4.00 |  |  | Nc1ncnc2c1ncn2[C@@H]1O[C@H](CNS(=O)(=O)CS(N)(=O)=O)[C@@H](O)[C@H]1O
 |  |  | 4.63 | NC(=O)c1csc([C@@H]2O[C@H](CNS(=O)(=O)CS(=O)(=O)NC[C@H]3O[C@@H](n4cnc5c(N)ncnc54)[C@H](O)[C@@H]3O)[C@@H](O)[C@H]2O)n1
< 4.00 | < 4.00 |  |  | Nc1ncnc2c1ncn2[C@@H]1O[C@H](CO)[C@@H](O)[C@H]1O [ADENOSINE]

Further lines, the compound ahead of its results:

Compound | pKi [1] | pKi [2] | pKi [3] | pIC50 [2]
C#Cc1nc(N)c2ncn([C@@H]3O[C@H](CNS(=O)(=O)CS(=O)(=O)NCCc4c(O)c5c(c(C)c4OC)COC5=O)[C@@H](O)[C@H]3O)c2n1 | 6.74 | 6.28 |  | 
COc1c(C)c2c(c(O)c1CCOP(=O)(O)CP(=O)(O)OC[C@H]1O[C@@H](n3cnc4c(N)nc(-c5ccccc5)nc43)[C@H](O)[C@@H]1O)C(=O)OC2 |  | 7.15 |  | 
NC(=O)c1c[se]c([C@@H]2O[C@H](COP(=O)(O)OP(=O)(O)OC[C@H]3O[C@@H](n4cnc5c(N)ncnc54)[C@H](O)[C@@H]3O)[C@@H](O)[C@H]2O)n1 |  |  | 7.40 | 
COc1c(C)c2c(c(O)c1CCO)C(=O)OC2 | 5.52 | 4.81 |  | 
COc1c(C)c2c(c(O)c1CCNS(=O)(=O)CS(=O)(=O)NC[C@H]1O[C@@H](n3cnc4c(N)nc(-c5ccccc5)nc43)[C@H](O)[C@@H]1O)C(=O)OC2 | 6.51 | 6.18 |  | 
COc1c(C)c2c(c(O)c1CCNS(=O)(=O)CS(N)(=O)=O)C(=O)OC2 [MYCOPHENOLIC BIS(SULFONAMIDE)] | 5.40 | 4.74 |  | 
NC(=O)c1csc([C@@H]2O[C@H](COP(=O)(O)OP(=O)(O)OC[C@H]3O[C@@H](n4cnc5c(N)ncnc54)[C@H](O)[C@@H]3O)[C@@H](O)[C@H]2O)n1 [TIAZOFURIN ADENINE DINUCLEOTIDE] |  |  | 7.00 | 
NC(=O)c1csc([C@@H]2O[C@H](CO)[C@@H](O)[C@H]2O)n1 [TIAZOFURIN] |  |  | 7.00 | 
